Assay results reported in patent US20050209151A1, “Use of peptides” (priority 1999, published 2005).
Where no end group is shown, it is not given here.

Columns and labels:
[1] = system: ACTH concentration in blood; test: ACTH concentration in blood after intraventricular administration of PrRP-31; format: in vivo, Wistar rats; details: PrRP-31 1, 3 or 10 nmol intraventricular
Description: (§1) Adult male Wistar rats (body weight 350 to […] at surgery) were anesthetized with intraperitoneal administration of 50 mg/kg pentobarbital and immobilized in stereotaxic instruments. The incisor bar was set 3.3 mm below the interaural line. The skull was exposed, and a hole was drilled with a dental drill to implant a guide cannula AG-12 (inside diameter of 0.4 mm, outside diameter of 0.5 mm, by Eicom) in the third ventricle. Anchor screws were implanted in four surrounding locations. The tip of the stainless steel guide cannula AG-12 was inserted into position in the upper part of the third ventricle. The stereotaxic coordinates were AP: +7.1 mm, L: 0.0 mm, H: +2.0 mm, from the interaural line, according to the atlas of Paxinos and Watson (1986). The guide cannula was secured to the skull with instant adhesive, dental cement, and the anchor screws. A stainless-steel dummy cannula AD-12 (0.35 mm outside diameter, by Eicom) was then inserted into the guide cannula and secured with a cap nut (by Eicom). The rats were post-operatively housed in individual cages.
(§2) The animals were allowed to recover for about 1 week after the implantation of the guide cannulas, and blood samples were taken as they were allowed to move freely. The rats were then anesthetized with intraperitoneal administration of 50 mg/kg pentobarbital. […]

[2] = system: β-endorphin concentration in blood; test: β-endorphin concentration in blood after intraventricular administration of PrRP-31; format: in vivo, Wistar rats; details: PrRP-31 1, 3 or 10 nmol intraventricular
Description: as §1, §2

[3] = plasma radioimmunoassay, 0-60 min

## PrRP-31: amide form of the peptide consisting of the amino acid sequence in SEQ ID NO. 32 (SRTHRHSMEIRTPDINPAWYASRGIRPVGRF-NH2)
[1]
  time of peak ACTH concentration in blood after dosing: 15 min
[1]; [3]
  ACTH concentration in blood compared to the control group: higher concentration-dependent increases
[2]
  time of peak β-endorphin concentration in blood after dosing: 15 min
[2]; [3]
  β-endorphin concentration in blood compared to the control group: higher concentration-dependent increases
